Legend:
Assay type in all cases: in vivo
[1] = system: cocklebur (Xanthium strumarium); assay: Test B pre-/postemergence plant response; settings: for Plant response rating, Cocklebur: Postemergence
Outline: (§1)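 Steps: sow seed in loam–sand soil and spray preemergence, or grow plants in peat-based medium to 1–4 leaves (2–18 cm) and spray postemergence; formulation is non-phytotoxic solvent plus surfactant; hold in greenhouse 13–15 days; score visually vs controls, 0 = no effect, 100 = complete control.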

[2] = system: goosegrass (Eleusine indica); assay: Test B pre-/postemergence plant response; settings: for Plant response rating, Goosegrass: Postemergence
Outline: as §1

[3] = system: johnsongrass (Sorghum halepense); assay: Test B pre-/postemergence plant response; settings: for Plant response rating, Johnsongrass: Postemergence
Outline: as §1

kochia (Kochia scoparia) = assay: Test B pre-/postemergence plant response; settings: for Plant response rating, Kochia: Postemergence
Outline: as §1

[4] = system: pigweed (Amaranthus retroflexus); assay: Test B pre-/postemergence plant response; settings: for Plant response rating, Pigweed: Postemergence
Outline: as §1

[5] = system: ragweed (common ragweed, Ambrosia elatior); assay: Test B pre-/postemergence plant response; settings: for Plant response rating, Ragweed: Postemergence
Outline: as §1

soybean (Glycine max) = assay: Test B pre-/postemergence plant response; settings: for Plant response rating, Soybean: Postemergence
Outline: as §1

[6] = system: velvetleaf (Abutilon theophrasti); assay: Test B pre-/postemergence plant response; settings: for Plant response rating, Velvetleaf: Postemergence
Outline: as §1

[7] = system: wheat (Triticum aestivum); assay: Test B pre-/postemergence plant response; settings: for Plant response rating, Wheat: Postemergence
Outline: as §1

wild oat (Avena fatua) = assay: Test B pre-/postemergence plant response; settings: for Plant response rating, Oat, Wild: Postemergence
Outline: as §1

[8] = system: canarygrass (Phalaris minor); assay: Test B postemergence plant response; settings: for Plant response rating, Canarygrass: Postemergence
Outline: (§2)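 Plants grown in peat/vermiculite medium were sprayed postemergence at 2–18 cm height (1- to 4-leaf stage). After 13–15 days in the greenhouse, response was rated visually against untreated controls on a 0–100 scale (0 no effect, 100 complete control).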

[9] = system: chickweed (Stellaria media); assay: Test B postemergence plant response; settings: for Plant response rating, Chickweed: Postemergence
Outline: as §2

[10] = system: windgrass (Apera spica-venti); assay: Test B postemergence plant response; settings: for Plant response rating, Windgrass: Postemergence
Outline: as §2

[11] = 62 g ai/ha, postemergence, 0 is no effect, 100 is complete control, 13 to 15 days
[12] = 31 g ai/ha, 0 to 100 scale (0 no effect, 100 complete control)
[13] = 125 g ai/ha, scale 0 to 100 (0 no effect, 100 complete control)
[14] = 250 g ai/ha, scale 0 to 100 (0 no effect, 100 complete control), 13 to 15 days

In the case of `CCCn1c(-c2cccc(Br)c2)ncc(C(=O)C2=C(O)CCCC2=O)c1=O` [Compound 141], the “Cocklebur plant response rating (0 to 100 scale)” value [1, 11] is reported as 65, the “Plant response rating, Cocklebur” value [1, 12] is reported as 40 and the “Plant response rating, Cocklebur” value [1, 13] is reported as 95. For the same compound, the “Plant response rating, Cocklebur” value [1, 14] was 100, the “Goosegrass plant response rating (0 to 100 scale)” value [2, 11] was 75 and the “Plant response rating, Goosegrass” value [2, 12] was 65. The “Plant response rating, Goosegrass” value [2, 13] was 75, the “Plant response rating, Goosegrass” value [2, 14] was 80 and the “Johnsongrass plant response rating (0 to 100 scale)” value [3, 11] was 15. The “Plant response rating, Johnsongrass” value [3, 12] was 15, the “Plant response rating, Johnsongrass” value [3, 13] was 50 and the “Plant response rating, Johnsongrass” value [3, 14] was 65. The “Kochia plant response rating (0 to 100 scale)” value (kochia (Kochia scoparia); [11]) was 65, the “Plant response rating, Kochia” value (kochia (Kochia scoparia); [12]) was 20 and the “Plant response rating, Kochia” value (kochia (Kochia scoparia); [13]) was 85. The “Plant response rating, Kochia” value (kochia (Kochia scoparia); [14]) was 90, the “Pigweed plant response rating (0 to 100 scale)” value [4, 11] was 75 and the “Plant response rating, Pigweed” value [4, 12] was 60. The “Plant response rating, Pigweed” value [4, 13] was 95, the “Plant response rating, Pigweed” value [4, 14] was 98 and the “Ragweed plant response rating (0 to 100 scale)” value [5, 11] was 75. The “Plant response rating, Ragweed” value [5, 12] was 65, the “Plant response rating, Ragweed” value [5, 13] was 85 and the “Plant response rating, Ragweed” value [5, 14] was 95. The “Soybean plant response rating (0 to 100 scale)” value (soybean (Glycine max); [11]) was 70, the “Plant response rating, Soybean” value (soybean (Glycine max); [12]) was 70 and the “Plant response rating, Soybean” value (soybean (Glycine max); [13]) was 75. The “Plant response rating, Soybean” value (soybean (Glycine max); [14]) was 90, the “Velvetleaf plant response rating (0 to 100 scale)” value [6, 11] was 95 and the “Plant response rating, Velvetleaf” value [6, 12] was 75. The “Plant response rating, Velvetleaf” value [6, 13] was 98, the “Plant response rating, Velvetleaf” value [6, 14] was 98 and the “Wheat plant response rating (0 to 100 scale)” value [7, 11] was 5. The “Plant response rating, Wheat” value [7, 12] was 0, the “Plant response rating, Wheat” value [7, 13] was 5 and the “Plant response rating, Wheat” value [7, 14] was 10. The “Oat, Wild plant response rating (0 to 100 scale)” value (wild oat (Avena fatua); [11]) was 10, the “Plant response rating, Oat, Wild” value (wild oat (Avena fatua); [12]) was 10 and the “Plant response rating, Oat, Wild” value (wild oat (Avena fatua); [13]) was 15. For the same compound, the “Plant response rating, Oat, Wild” value (wild oat (Avena fatua); [14]) was 40, the “Canarygrass plant response rating (0 to 100 scale)” value [8, 11] was 0 and the “Plant response rating, Canarygrass” value [8, 12] was 0. For the same compound, the “Plant response rating, Canarygrass” value [8, 13] was 5, the “Plant response rating, Canarygrass” value [8, 14] was 5 and the “Chickweed plant response rating (0 to 100 scale)” value [9, 11] was 85. For the same compound, the “Plant response rating, Chickweed” value [9, 12] was 60, the “Plant response rating, Chickweed” value [9, 13] was 90 and the “Plant response rating, Chickweed” value [9, 14] was 95. The “Windgrass plant response rating (0 to 100 scale)” value [10, 11] was 35, the “Plant response rating, Windgrass” value [10, 12] was 25 and the “Plant response rating, Windgrass” value [10, 13] was 40. The “Plant response rating, Windgrass” value [10, 14] was 50.
